Experimental data from patent US8586719B2, “Triterpenes for modulating gene expression and cell membrane, and as antiprotozoal agents” (Pacific Arrow Limited, priority 2005, dated 2013).

What was measured:
[1] = test system: insulin-like growth factor binding protein 4 (IGFBP4); assay: Microarray gene expression in ES2 cells: IGFBP4; assay type: cell-based, human; settings: probe set 201508_at
Excerpt: (§1) The composition comprises bioactive compounds from natural plants or synthesis. The majority of the plants are from the Sapindaceae family, which has 140-150 genera with 1400-2000 species. The program is based on our purification methods and biological assays including the MTT assay See International Application No. PCT/US05/31900, filed Sep. 7, 2005, U.S. Ser. No. 11/289,142, filed Nov. 28, 2005, and U.S. Ser. No. 11/131,551, filed May 17, 2005, and PCT/US2008/002086, 1188-ALA-PCT, filed Feb. 15, 2008, the contents of which are incorporated herein by reference. The details of Analysis of gene expression of ES2 cells after Y-treatment by Microarray, Data Analysis Methods and Western blot in PCT/US2008/002086, 1188-ALA-PCT, filed Feb. 15, 2008, the contents of which are incorporated herein by reference

Fibronectin = Fibronectin secretion, lung carcinoma cells (H460); assay type: cell-based, human; settings: Homo sapiens, NCI-H460; H460 cells; 20 ug/ml
Procedure: Reduction of Fibronectin secretion from ES2 cells after xanifolia-Y treatment. • (Results of F1, F3, F4, F5, F7, F8, F11, F12A, F15, F16, F17) Data in PCT/US2008/002086, 1188-ALA-PCT, filed Feb. 15, 2008 are incorporated herein by reference • (F11) For lung carcinoma cells (H460), at concentration of 20 ug/ml, there are inhibitions of Fibronectin secretion ranged from 20-60%. • (F12A) For bladder carcinoma cells (HTB-9), Xanifolia-Y (10 ug/ml) inhibits 50% of Fibronectin secretion. • (F15) In liver HepG2 cells. 10 ug/ml of xanifolia-Y inhibits 42% secretion of Fibronectin. • (F16) Incubation of brain glioblastoma T98G cells with 10 ug/ml of xanifolia-Y inhibits 27% Fibronectin secretion and with 20 ug/ml Y inhibits 74% Fibronectin secretion. • (F17) For skin SK-MeI-5 cells, the inhibition is 40-57% with 20 ug/ml of Xanifolia-Y.

[2] = test system: NFKB1Z (nuclear factor of kappa light polypeptide gene enhancer in B-cells inhibitor, zeta); assay: Gene expression by Real-time PCR: NFKB1Z; assay type: cell-based; settings: DMSO control = 100
Excerpt: (§2) Determination of gene expression by Real-time PCR method (Brilliant QPCR, Agilent Technologies): The real-time polymerase chain reactions further confirm the results obtained from micro array analysis. The Real-time PCR results (shown below) confirmed that Compound Y3 and YM increase the expression of the genes: ANGPT2, DDIT3, LIF and NFKB1Z

[3] = test system: COL1A1 (collagen type 1 alpha 1); assay: Gene expression by Real-time PCR: COL1A1; assay type: cell-based; settings: control = 100
Glypican 6 (GPC6) = assay: Microarray gene expression in ES2 cells: Glypican; assay type: cell-based, human
Excerpt: as §1

FN1 (fibronectin 1) = assay: Gene expression by Real-time PCR: FN1; assay type: cell-based; settings: control = 100
Excerpt: as §2

C/C=C(/C)C(=O)O[C@H]1[C@H](OC(=O)/C(C)=C\C)[C@@]2(CO)C(CC1(C)C)C1=CCC3[C@@]4(C)CC[C@H](O[C@@H]5OC(C(=O)O)[C@@H](O)[C@@H](O[C@@H]6O[C@@H](CO)[C@@H](O)C6O)C5O[C@@H]5OC(CO)[C@H](O)[C@@H](O)C5O)C(C)(C)C4CC[C@@]3(C)[C@]1(C)[C@@H](O)[C@H]2O (stereo partly drawn) [Y, 3-O-[β-D-galactopyranosyl(1→2)]-α-L-arabinofuranosy (1→3)-β-D-glucuronopyranosyl-21,22-O-diangeloyl-3β, 15α, 16α, 21β, 22α, 28-hexahydroxyolean-12-ene]
IGFBP4 expression, treated/D (DMSO control) [1]: −1.7
inhibition at 20 µg/mL (Fibronectin): 20 to 60%
NFKB1Z expression, % of control [2]: 142.9 % of control
COL1A1 expression, % of control [3]: 49.9 % of control
GPC6 expression, treated/D (DMSO control) (Glypican 6 (GPC6); probe set 227059_at): −2.2
GPC6 expression, treated/D (DMSO control) (Glypican 6 (GPC6); probe set 243865_x_at): −2.7
FN1 expression, % of control (FN1 (fibronectin 1)): 44.1 % of control
